Laboratory results: US20070173456A1, “PREPTIN FRAGMENTS AND METHODS OF USE” (Auckland UniServices Limited, priority 2005, published 2007)

Tests used:
[1] = system: rat osteoblasts; test: Osteoblast proliferation, [3H]-thymidine incorporation; type: cell-based; conditions: versus vehicle control; for proliferation of rat osteoblasts, as measured by thymidine incorporation (FIG. 1): primary fetal rat calvarial osteoblasts, peptide 1×10^−9 M, 20-24 hours; for proliferation of rat osteoblasts, as measured by thymidine incorporation, parallel comparison (FIG. 4): various concentrations, compared in parallel
Experimental: Osteoblasts were isolated from 20 day fetal rat calvariae as previously described (Cornish et al., American Journal of Physiology—Endocrinology & Metabolism 277: E779-E783, 1999). Briefly, calvariae were dissected aseptically and the frontal and parietal bones are stripped of their periosteum. Only the central portions of the bones, free from suture tissue, were collected. The calvariae were treated twice with phosphate buffered saline (PBS) containing 3 mM EDTA (pH 7.4) for 15 minutes at 37° C. in a shaking water bath. Calvariae were washed once in PBS and treated twice with 3 ml of collagenase (1 mg/ml) for 7 minutes at 37° C. After discarding supernatants from the first two collagenase digestions, calvariae were treated twice with 3 ml collagenase (2 mg/ml) for 30 minutes at 37° C. The supernatants from these third and fourth collagenase digestions were collected, pooled and centrifuged. The pelleted cells were washed in Dulbecco's modified Eagle's medium (DME) with 10% fetal calf serum (FCS), resuspended in DME/10% FCS, and placed in 75 cm^2 flasks. Cells were incubated under 5% CO2 and 95% air at 37° C. Cells were grown to confluence (approximately 5-6 days) and then subcultured.
To set up subcultures, cells were trypsinized in trypsin-EDTA (0.05%/0.53 mM), rinsed in minimal essential medium (MEM) with 5% FCS, resuspended in fresh medium, and seeded at 5×10^4 cells/ml in 24-well plates (0.5 ml cell suspension per well, i.e., 1.4×10^4 cells/cm^2).
To evaluate the proliferative responses of osteoblast cultures in the presence of preptin and various fragments of preptin, subconfluent cell cultures were growth arrested by incubation in MEM/0.1% bovine serum albumin 24 hours prior to addition of test compounds. Cells were cultured in the presence of full-length preptin (preptin 1-34), preptin 1-19, preptin 20-34, or in the absence of preptin compounds (control). Preptin compounds were added to a final concentration of 1×10^−9 M. A pulse of [^3H]-thymidine (1 […]) was added to each sample two hours prior to the end of each experimental incubation. The incubations were terminated 20-24 hours after addition of preptin compounds by washing the cells in MEM containing non-radioactive thymidine, followed by the addition of 10% trichloroacetic acid. The precipitate was washed twice either ethanol:ether (3:1) and the wells were desiccated at room temperature. The residue in each well was redissolved in 2 M KOH at 55° C. for 30 minutes, neutralized with 1 M HCl, and an aliquot was removed to quantitate incorporation of radioactivity in the samples. The results are depicted in FIG. 1. […] The results are representative of at least four independent assays.

[2] = system: isolated, perfused rat pancreas; conditions: infusion into isolated, Buchanan et al. 2001; cited from earlier work

## Asp Val Ser Thr R1 R2 R3 Val Leu Pro Asp R4 Phe Pro Arg Tyr Pro Val Gly Lys Phe Phe R5 R6 Asp Thr Trp R7 Gln Ser R8 Rg Arg Leu [preptin 1-34, reference compound]
[1]
  proliferation of rat osteoblasts, as measured by thymidine incorporation (FIG. 1): stimulated
[2]
  insulin secretion: significant increase in the second phase of secretion

## Asp Val Ser Thr R1 R2 R3 Val Leu Pro Asp R4 Phe Pro Arg Tyr Pro Val Gly [preptin 1-19]
[1]
  proliferation of rat osteoblasts, as measured by thymidine incorporation (FIG. 1): enhances osteoblast proliferation in vitro, to levels comparable to those stimulated by full-length preptin
  proliferation of rat osteoblasts, as measured by thymidine incorporation, parallel comparison (FIG. 4): significant increase in proliferation at 1×10^−9M

## preptin 20-34: a C-terminal fragment of preptin (KFFQYDTWKQSTQRL; Preptin; UniProt P01344 112-126, looked up, fragment) [reference compound]
[1]
  proliferation of rat osteoblasts, as measured by thymidine incorporation (FIG. 1): No enhancement of osteoblast proliferation was observed
  proliferation of rat osteoblasts, as measured by thymidine incorporation, parallel comparison (FIG. 4): did not stimulate a significant increase in proliferation at any of the concentrations tested
